Reference: patent US10399964B2, “Coumarin-linked taxanes for detection and circumvention of cellular efflux” (The University of Kansas, priority 2017, dated 2019)
Entries after “also recorded” stand apart in the source; their conditions may differ. Values belong to the molecule of their own block, whether it stands above or below them.

How the values were obtained:
HeLa cells = assay: Subcellular distribution and colocalization by confocal microscopy in living HeLa cells; assay type: cell-based; settings: for subcellular distribution / colocalization: confocal microscopy, 1 h; for binding to microtubules in cells: HeLa cells transfected with mCherry-tubulin
Protocol: To examine the subcellular distribution of Compound 1, HeLa cells were imaged by confocal laser scanning microscopy (FIGS. 5A, 5B, and 5C). […] The distinct spectral profiles of PB and OG were used to further examine colocalization of Compound 1 and Flutax-2® (FIG. 5C).
The experiment was conducted by 1 hour incubation with HeLa cells, followed by a wash and then imaging using a 25% laser power with excitation at 405 nm and emission at 425-500 nm.
The studies compared the potency as an endoplasmic reticulum probe with commercial ER probe ER Tracker Blue-White DPX. […] Panels A and B used 1 nM of the compounds, Panels A1 and B1 used 10 nM of the compounds, Panels A2 and B2 used 100 nM of the compounds, and Panels A3 and B3 used 1 μM of the compounds.
As such, Compound 2 (PB-β-Ala-Taxol) was compared to iPr-Rhodol-β-Ala-Taxol with HeLa cells transfected with mCherry-tubulin.

[1] = test system: HeLa cervical carcinoma cells; assay: Cytotoxicity, cellular viability by flow cytometry, HeLa; settings: for IC50 / relative toxicity (cellular viability versus concentration): HeLa cells; for IC50: 48 h; for relative toxicity (cellular viability versus concentration): FIG. 9
Protocol: The cytotoxicity of the taxane PB fluorophores towards HeLa cervical carcinoma cells (FIGS. 4A and 4B) was evaluated. These cell lines were treated for 48 h, cellular viability was analyzed by flow cytometry, and paclitaxel was used as a positive control.
The IC50s were also determined.

[2] = target: cross-linked microtubules from bovine brain; assay: Affinity for cross-linked microtubules by fluorescence enhancement; settings: GAB buffer (pH 6.5); equilibrium binding curves; excitation 405 nm; read-out: apparent Kd
Protocol: PB was excited at 405 nm and emitted photons were collected at and above 450 nm.
Experiments were conducted to obtain the measured affinities of Compounds 1-3 for cross-linked microtubules from bovine brain using a fluorescence enhancement method (FIG. 2). […] PB was excited at 405 nm and emitted photons were collected at and above 450 nm.

HCT-15 cells = assay: Cytotoxicity, cellular viability by flow cytometry, HCT-15; assay type: cell-based; settings: for IC50: Homo sapiens, HCT-15, 48 h, 48 h
[3] = test system: HeLa, Ramos, Raji, HL-60, and Jurkat cell lines; assay: Uptake into different cell lines by flow cytometry; assay type: cell-based; settings: 1 μM, 1 h, 200,000 cells/200 μL; verapamil 0, 25, 100 μM
Protocol: The uptake of Compound 1 (PB-Gly-Taxol, at 1 μM, 1 h, 200,000 cells/200 μL) by different cell lines was studied and quantified by using flow cytometry.

P-gp in HCT-15 cells = P-gp in HCT-15 cells (Homo sapiens, UniProt P08183); assay: P-gp efflux: cellular fluorescence with or without verapamil by flow cytometry, HCT-15; settings: probe 1 μM
Protocol: Studies were conducted to investigate the efflux of Compound 1 in HCT-15 cells that express high levels of P-gp. Compound 1 was compared with rhodamine 123 (Rho123), a common P-gp substrate that accumulates in mitochondria.

P-gp in HeLa cells = P-gp in HeLa cells (Homo sapiens, UniProt P08183); assay: P-gp efflux: cellular fluorescence with or without verapamil by flow cytometry, HeLa; settings: probe 1 μM
Sequence of P-gp in HeLa cells (P08183 whole entry): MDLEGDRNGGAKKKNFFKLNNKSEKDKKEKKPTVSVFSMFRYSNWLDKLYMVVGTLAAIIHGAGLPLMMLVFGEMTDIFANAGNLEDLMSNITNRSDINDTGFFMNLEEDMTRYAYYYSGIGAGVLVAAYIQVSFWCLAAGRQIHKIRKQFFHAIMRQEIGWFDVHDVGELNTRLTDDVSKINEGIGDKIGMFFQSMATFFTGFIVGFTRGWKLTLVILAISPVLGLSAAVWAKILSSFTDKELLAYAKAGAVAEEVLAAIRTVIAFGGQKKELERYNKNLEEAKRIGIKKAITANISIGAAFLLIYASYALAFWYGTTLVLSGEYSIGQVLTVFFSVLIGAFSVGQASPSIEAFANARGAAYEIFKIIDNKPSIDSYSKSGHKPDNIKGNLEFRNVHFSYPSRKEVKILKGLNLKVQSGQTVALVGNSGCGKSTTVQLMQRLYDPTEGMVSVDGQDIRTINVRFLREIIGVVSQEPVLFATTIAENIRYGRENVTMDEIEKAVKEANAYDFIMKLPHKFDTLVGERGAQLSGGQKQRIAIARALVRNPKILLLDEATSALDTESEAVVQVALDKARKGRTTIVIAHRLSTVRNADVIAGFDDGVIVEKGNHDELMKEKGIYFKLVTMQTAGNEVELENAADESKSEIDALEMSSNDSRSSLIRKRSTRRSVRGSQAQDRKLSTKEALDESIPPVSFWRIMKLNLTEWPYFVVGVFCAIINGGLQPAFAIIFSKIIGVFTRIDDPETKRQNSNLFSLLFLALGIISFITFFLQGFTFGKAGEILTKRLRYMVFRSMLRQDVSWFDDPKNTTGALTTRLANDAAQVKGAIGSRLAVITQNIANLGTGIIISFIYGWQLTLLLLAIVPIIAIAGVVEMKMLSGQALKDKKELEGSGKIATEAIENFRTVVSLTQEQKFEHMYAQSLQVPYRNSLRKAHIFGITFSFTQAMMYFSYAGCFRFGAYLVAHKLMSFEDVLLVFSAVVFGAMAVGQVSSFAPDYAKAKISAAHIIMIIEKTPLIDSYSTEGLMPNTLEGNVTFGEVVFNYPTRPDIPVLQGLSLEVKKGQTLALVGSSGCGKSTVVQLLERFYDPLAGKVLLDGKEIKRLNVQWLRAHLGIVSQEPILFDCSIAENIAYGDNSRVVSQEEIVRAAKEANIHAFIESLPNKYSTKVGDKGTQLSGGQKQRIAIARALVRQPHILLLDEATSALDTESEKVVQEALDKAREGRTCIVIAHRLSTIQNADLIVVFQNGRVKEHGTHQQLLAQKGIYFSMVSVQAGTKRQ

Sequence of P-gp in HCT-15 cells (P08183 whole entry): as above

Molecule: PB-NH2-Gly-Taxol [Compound 22]
subcellular distribution / colocalization (HeLa cells; living HeLa cells): accumulate in the endoplasmic reticulum

Molecule: Flutax-2® [reference compound]
IC50 ([1]; presence of verapamil (25 μM)): 1310 nM
subcellular distribution / colocalization (HeLa cells; living HeLa cells): punctate fluorescence that did not co-localize with Compound 1 on microtubules

Molecule: CC(=O)OC1C(=O)C2(C)C(OC(=O)CNC(=O)c3cc4cc(F)c(O)c(F)c4oc3=O)CC3OCC3(OC(C)=O)C2C(OC(=O)c2ccccc2)C2(O)CC(OC(=O)C(O)C(NC(=O)c3ccccc3)c3ccccc3)C(C)=C1C2(C)C (stereo not shown) [Compound 1, PB-Gly-Taxol]
Kd [2]: 34 ± 6 nM
relative toxicity (cellular viability versus concentration) [1]: less toxic than PB-NHMe-Gly-Taxol (Compound 21); also recorded: less toxic than paclitaxel
IC50 ([1]; Homo sapiens, HeLa, absence of verapamil): 120 nM
IC50 ([1]; Homo sapiens, HeLa, presence of verapamil (25 μM)): 60 nM
IC50 (HCT-15 cells; with verapamil (25 μM)): 90 nM
IC50 (HCT-15 cells; without verapamil): 3700 nM
enhancement of toxicity by verapamil (HCT-15 cells; verapamil 25 μM versus none): 41 fold
subcellular distribution / colocalization (HeLa cells; living HeLa cells): bound microtubules with very high specificity
effect of verapamil on uptake [3]: the inclusion of verapamil increased the uptake

Molecule: rhodamine 123 [Rho123]
increase of cellular fluorescence in presence of verapamil (P-gp in HCT-15 cells; verapamil 25 μM): 3 fold
increase of cellular fluorescence in presence of verapamil (P-gp in HCT-15 cells; verapamil 100 μM): 3 fold
detection of low levels of P-gp activity (P-gp in HeLa cells): undetectable

Kd [2]: 265 ± 54 nM
Molecule: CC(=O)OC1C(=O)C2(C)C(OC(=O)CCCNC(=O)c3cc4cc(F)c(O)c(F)c4oc3=O)CC3OCC3(OC(C)=O)C2C(OC(=O)c2ccccc2)C2(O)CC(OC(=O)C(O)C(NC(=O)c3ccccc3)c3ccccc3)C(C)=C1C2(C)C (stereo not shown) [Compound 3, PB-GABA-Taxol]

Molecule: CC(=O)OC1C(=O)C2(C)C(OC(=O)CCNC(=O)c3cc4cc(F)c(O)c(F)c4oc3=O)CC3OCC3(OC(C)=O)C2C(OC(=O)c2ccccc2)C2(O)CC(OC(=O)C(O)C(NC(=O)c3ccccc3)c3ccccc3)C(C)=C1C2(C)C (stereo not drawn) [Compound 2, PB-β-Ala-Taxol]
Kd [2]: 63 ± 8 nM
binding to microtubules in cells (HeLa cells): can bind to microtubules better than when paclitaxel is coupled to a different fluorophore

Molecule: PB-NHMe-Gly-Taxol [Compound 21]
relative toxicity (cellular viability versus concentration) [1]: less toxic than paclitaxel
potency as endoplasmic reticulum probe (HeLa cells; living HeLa cells, 1 nM to 1 μM, versus ER Tracker Blue-White DPX): more potent as an endothelium reticulum probe compared to ER Tracker Blue-White DPX
subcellular distribution / colocalization (HeLa cells; living HeLa cells): does not appear to colocalize with Flutax-2® on microtubules
subcellular distribution / colocalization (HeLa cells; living HeLa cells, listed as PB-NHMe-Gly-Taxol): accumulate in the endoplasmic reticulum; also recorded: colocalizes with the red fluorescent endoplasmic reticulum probe HRA

Molecule: CC(=O)O[C@H]1C(=O)[C@@]2(C)C([C@H](OC(=O)c3ccccc3)[C@]3(O)C[C@H](OC(O)[C@H](O)[C@@H](NC(=O)c4ccccc4)c4ccccc4)C(C)=C1C3(C)C)[C@]1(OC(C)=O)CO[C@@H]1C[C@@H]2OC(=O)CCNC(=O)c1ccc(-c2c3cc(F)c(=O)cc-3oc3cc(NC(C)C)c(F)cc23)c(C)c1 (stereo partly drawn) [iPr-Rhodol-β-Ala-Taxol, reference compound]
cytotoxicity (in words) [1]: without engendering substantial cytotoxicity
binding to microtubules in cells (HeLa cells): does not bind extensively to microtubules
subcellular distribution / colocalization (HeLa cells; living HeLa cells): appears to accumulate predominantly in the endoplasmic reticulum
